# From US20090298820A1, “3-SUBSTITUTED-1H-PYRROLO[2,3-B]PYRIDINE AND 3-SUBSTITUTED-1H-PYRROLO[3,2-B]PYRIDINE COMPOUNDS, THEIR USE AS MTOR KINASE AND PI3 KINASE INHIBITORS, AND THEIR SYNTHESES” (Wyeth, priority 2008, published 2009)
# Assays:
# Format in all cases: biochemical
# PI3Kα = PI3Kα (Homo sapiens, UniProt P42336); assay: PI3K-alpha fluorescence polarization assay; conditions: read-out: PI3Kα Median IC50
# mTOR = mTOR (Homo sapiens, UniProt P42345); assay: mTOR enzyme assay (DELFIA format, His6-S6K substrate); conditions: read-out: mTOR Kinase Median IC50
# PI3Kγ = PI3Kγ (Homo sapiens, UniProt P48736); assay: PI3K-gamma fluorescence polarization assay; conditions: read-out: PI3Kγ Median IC50
# Chain of PI3Kγ (P48736 whole entry, species assumed): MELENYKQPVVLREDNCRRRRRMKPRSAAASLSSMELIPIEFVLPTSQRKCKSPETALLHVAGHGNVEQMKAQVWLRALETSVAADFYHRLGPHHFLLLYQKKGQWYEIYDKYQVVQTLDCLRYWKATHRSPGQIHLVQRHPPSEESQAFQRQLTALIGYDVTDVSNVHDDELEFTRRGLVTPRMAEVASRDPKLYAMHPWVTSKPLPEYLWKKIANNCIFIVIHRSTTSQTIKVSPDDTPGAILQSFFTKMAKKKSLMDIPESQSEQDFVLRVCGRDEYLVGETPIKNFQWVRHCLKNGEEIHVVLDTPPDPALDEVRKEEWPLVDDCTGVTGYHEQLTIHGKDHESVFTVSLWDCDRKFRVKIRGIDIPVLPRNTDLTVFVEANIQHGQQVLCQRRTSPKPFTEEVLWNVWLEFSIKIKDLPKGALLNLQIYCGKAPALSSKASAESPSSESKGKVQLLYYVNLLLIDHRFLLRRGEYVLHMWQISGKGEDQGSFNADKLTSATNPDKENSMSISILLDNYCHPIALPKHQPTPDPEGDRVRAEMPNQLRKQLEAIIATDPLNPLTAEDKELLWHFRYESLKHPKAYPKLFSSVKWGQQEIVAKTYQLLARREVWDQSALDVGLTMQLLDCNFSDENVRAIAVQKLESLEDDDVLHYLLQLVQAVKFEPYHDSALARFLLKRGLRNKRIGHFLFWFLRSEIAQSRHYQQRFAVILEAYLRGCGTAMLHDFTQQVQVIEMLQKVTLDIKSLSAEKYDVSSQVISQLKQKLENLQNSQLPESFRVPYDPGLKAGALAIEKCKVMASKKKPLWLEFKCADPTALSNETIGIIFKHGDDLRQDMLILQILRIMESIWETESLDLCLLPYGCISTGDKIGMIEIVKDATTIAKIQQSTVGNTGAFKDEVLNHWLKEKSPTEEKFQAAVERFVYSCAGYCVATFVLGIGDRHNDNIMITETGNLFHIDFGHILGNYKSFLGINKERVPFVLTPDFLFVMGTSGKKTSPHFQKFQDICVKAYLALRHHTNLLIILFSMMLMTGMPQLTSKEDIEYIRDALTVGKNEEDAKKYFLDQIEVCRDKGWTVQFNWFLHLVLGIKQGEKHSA
# Chain of PI3Kα (P42336 whole entry, species assumed): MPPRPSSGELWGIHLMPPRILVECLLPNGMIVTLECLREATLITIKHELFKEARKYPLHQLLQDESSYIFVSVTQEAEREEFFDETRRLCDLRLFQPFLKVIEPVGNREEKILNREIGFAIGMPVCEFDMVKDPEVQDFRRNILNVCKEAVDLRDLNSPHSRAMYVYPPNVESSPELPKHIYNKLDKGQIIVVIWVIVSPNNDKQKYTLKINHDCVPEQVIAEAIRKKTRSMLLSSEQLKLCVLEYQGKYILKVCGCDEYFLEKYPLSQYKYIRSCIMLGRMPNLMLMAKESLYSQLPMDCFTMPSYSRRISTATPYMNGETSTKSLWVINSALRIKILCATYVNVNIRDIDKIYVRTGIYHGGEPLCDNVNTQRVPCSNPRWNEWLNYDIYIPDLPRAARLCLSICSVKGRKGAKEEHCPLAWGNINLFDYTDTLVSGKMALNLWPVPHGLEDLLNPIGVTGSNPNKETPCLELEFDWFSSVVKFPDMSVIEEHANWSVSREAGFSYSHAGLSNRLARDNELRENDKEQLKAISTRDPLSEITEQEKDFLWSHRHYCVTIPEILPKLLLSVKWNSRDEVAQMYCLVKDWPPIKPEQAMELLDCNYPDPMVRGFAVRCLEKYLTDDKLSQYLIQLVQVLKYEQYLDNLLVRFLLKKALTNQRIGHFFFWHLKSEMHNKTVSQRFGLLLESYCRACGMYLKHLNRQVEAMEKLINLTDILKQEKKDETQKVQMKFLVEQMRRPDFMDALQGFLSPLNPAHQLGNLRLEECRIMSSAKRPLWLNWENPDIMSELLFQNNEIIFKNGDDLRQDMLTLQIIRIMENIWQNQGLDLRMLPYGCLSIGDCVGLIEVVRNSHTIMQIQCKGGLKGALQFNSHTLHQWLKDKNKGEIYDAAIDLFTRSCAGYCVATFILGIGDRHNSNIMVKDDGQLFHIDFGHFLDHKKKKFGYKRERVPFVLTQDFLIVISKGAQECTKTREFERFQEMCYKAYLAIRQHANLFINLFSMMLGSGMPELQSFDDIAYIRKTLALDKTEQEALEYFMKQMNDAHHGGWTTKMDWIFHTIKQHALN
# Chain of PI3Kα (P27986 whole entry partner, species assumed): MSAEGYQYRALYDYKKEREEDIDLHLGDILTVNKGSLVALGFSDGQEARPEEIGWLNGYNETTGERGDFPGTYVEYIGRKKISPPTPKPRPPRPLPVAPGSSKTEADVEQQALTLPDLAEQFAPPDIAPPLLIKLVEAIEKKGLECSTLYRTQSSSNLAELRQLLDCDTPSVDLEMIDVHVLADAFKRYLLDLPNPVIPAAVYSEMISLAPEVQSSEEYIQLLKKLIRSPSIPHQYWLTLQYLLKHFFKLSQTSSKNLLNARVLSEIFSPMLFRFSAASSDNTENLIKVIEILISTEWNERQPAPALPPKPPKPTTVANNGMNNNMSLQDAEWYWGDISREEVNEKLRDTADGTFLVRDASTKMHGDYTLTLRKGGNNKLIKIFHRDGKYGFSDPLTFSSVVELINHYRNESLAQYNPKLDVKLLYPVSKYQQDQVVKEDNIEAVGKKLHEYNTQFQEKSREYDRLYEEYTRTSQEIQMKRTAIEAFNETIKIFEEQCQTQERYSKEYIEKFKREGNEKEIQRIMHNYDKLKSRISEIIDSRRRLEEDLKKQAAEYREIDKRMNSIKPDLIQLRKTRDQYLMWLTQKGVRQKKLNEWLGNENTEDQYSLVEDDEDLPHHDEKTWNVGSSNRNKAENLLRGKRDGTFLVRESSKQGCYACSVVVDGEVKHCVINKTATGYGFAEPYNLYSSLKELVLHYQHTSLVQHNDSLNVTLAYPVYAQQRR
molecule,measurement,setting,value
"COCCNC(=O)c1ccc(-c2ccnc3c2c(/C=C2\Oc4cccc(O)c4C2=O)cn3C)cc1 [Compound 149, 4-{3-[(Z)-(4-hydroxy-3-oxo-1-benzofuran-2(3H)-ylidene)methyl]-1-methyl-1H-pyrrolo[2,3-b]pyridin-4-yl}-N-(2-methoxyethyl)benzamide]",IC50,PI3Kα,48 nM
same,IC50,mTOR,1.7 nM
same,IC50,PI3Kγ,62 nM
"Cn1cc(/C=C2\Oc3cccc(O)c3C2=O)c2c(-c3cccc(S(N)(=O)=O)c3)ccnc21 [Compound 21, 3-{3-[(Z)-(4-hydroxy-3-oxo-1-benzofuran-2(3H)-ylidene)methyl]-1-methyl-1H-pyrrolo[2,3-b]pyridin-4-yl}benzenesulfonamide]",IC50,PI3Kα,34 nM
same,IC50,mTOR,3.5 nM
same,IC50,PI3Kγ,140 nM
"Cn1cc(/C=C2\Oc3cc(O)cc(O)c3C2=O)c2c(-c3cccnc3)ccnc21 [Compound 33, (2Z)-4,6-dihydroxy-2-[(1-methyl-4-pyridin-3-yl-1H-pyrrolo[2,3-b]pyridin-3-yl)methylene]-1-benzofuran-3(2H)-one]",IC50,PI3Kα,8 nM
same,IC50,mTOR,0.6 nM
same,IC50,PI3Kγ,38 nM
"(2Z)-2-({4-[4-(5,6-dihydro-4H-1,3-oxazin-2-yl)phenyl]-1-methyl-1H-pyrrolo[2,3- b]pyridin-3-yl}methylidene)-4-hydroxy-1-benzofuran-3(2H)-one [Compound 22]",IC50,PI3Kα,109 nM
same,IC50,mTOR,4.6 nM
same,IC50,PI3Kγ,276 nM
"COc1ccc2c(n1)c(C=C1Oc3cc(O)cc(O)c3C1=O)cn2C [Compound 3, 4,6-dihydroxy-2-[(5-methoxy-1-methyl-1H-pyrrolo[3,2-b]pyridin-3-yl)methylene]-1-benzofuran-3(2H)-one]",IC50,PI3Kα,506 nM
same,IC50,mTOR,685 nM
same,IC50,PI3Kγ,> 10000 nM
"COCCN(C)C(=O)c1ccc(-c2ccnc3c2c(/C=C2\Oc4cccc(O)c4C2=O)cn3C)cc1 [Compound 175, 4-{3-[(Z)-(4-hydroxy-3-oxo-1-benzofuran-2(3H)-ylidene)methyl]-1-methyl-1H-pyrrolo[2,3-b]pyridin-4-yl}-N-(2-methoxyethyl)-N-methylbenzamide]",IC50,PI3Kα,73 nM
same,IC50,mTOR,0.9 nM
same,IC50,PI3Kγ,152 nM
"Cn1cc(/C=C2\Oc3ccc(NC(=O)Nc4ccc(N5CCOCC5)nc4)cc3C2=O)c2c(N3CC4CCC(C3)O4)ccnc21 [Compound 219, 1-[(2Z)-2-{[1-methyl-4-(8-oxa-3-azabicyclo[3.2.1]oct-3-yl)-1H-pyrrolo[2,3-b]pyridin-3-yl]methylidene}-3-oxo-2,3-dihydro-1-benzofuran-5-yl]-3-(6-morpholin-4-ylpyridin-3-yl)urea]",IC50,PI3Kα,2220 nM
same,IC50,mTOR,29 nM
same,IC50,PI3Kγ,> 10000 nM
"Cn1cc(/C=C2\Oc3cccc(O)c3C2=O)c2c(N3CC4CCC(C3)O4)ccnc21 [Compound 55, (2Z)-4-hydroxy-2-{[1-methyl-4-(8-oxa-3-azabicyclo[3.2.1]oct-3-yl)-1H-pyrrolo[2,3-b]pyridin-3-yl]methylene}-1-benzofuran-3(2H)-one]",IC50,PI3Kα,104 nM
same,IC50,mTOR,0.4 nM
same,IC50,PI3Kγ,51 nM
"Cn1cc(/C=C2\Oc3cc(O)cc(O)c3C2=O)c2c(-c3ccccc3Cl)ccnc21 [Compound 12, (2Z)-2-{[4-(2-chlorophenyl)-1-methyl-1H-pyrrolo[2,3-b]pyridin-3-yl]methylene}-4,6-dihydroxy-1-benzofuran-3(2H)-one]",IC50,PI3Kα,167 nM
same,IC50,mTOR,2.8 nM
same,IC50,PI3Kγ,270 nM
"COC1CCN(C(=O)c2ccc(-c3ccnc4c3c(/C=C3\Oc5cccc(O)c5C3=O)cn4C)cc2)C1 (stereo not drawn) [Compound 249, (2Z)-4-hydroxy-2-[(4-{4-[(3-methoxypyrrolidin-1-yl)carbonyl]phenyl}-1-methyl-1H-pyrrolo[2,3-b]pyridin-3-yl)methylene]-1-benzofuran-3(2H)-one]",IC50,PI3Kα,20 nM
same,IC50,mTOR,0.6 nM
same,IC50,PI3Kγ,26 nM
"Cc1cc(CN(C)C(=O)C2CCN(c3ccnc4c3c(/C=C3\Oc5ccc(NC(=O)Nc6cccnc6)cc5C3=O)cn4C)CC2)ccn1 [Compound 223, N-methyl-1-{1-methyl-3-[(Z)-{3-oxo-5-[(pyridin-3-ylcarbamoyl)amino]-1-benzofuran-2(3H)-ylidene}methyl]-1H-pyrrolo[2,3-b]pyridin-4-yl}-N-[(2-methylpyridin-4-yl)methyl]piperidine-4-carboxamide]",IC50,PI3Kα,1850 nM
same,IC50,mTOR,23 nM
same,IC50,PI3Kγ,1270 nM
"Cn1cc(/C=C2\Oc3cccc(O)c3C2=O)c2c(-c3ccc(S(=O)(=O)N4CCCCC4)cc3)ccnc21 [Compound 181, (2Z)-4-hydroxy-2-({1-methyl-4-[4-(piperidin-1-ylsulfonyl)phenyl]-1H-pyrrolo[2,3-b]pyridin-3-yl}methylidene)-1-benzofuran-3(2H)-one]",IC50,PI3Kα,123 nM
same,IC50,mTOR,58 nM
same,IC50,PI3Kγ,1210 nM
"CN(C)CCOc1ccc(NC(=O)Nc2ccc3c(c2)C(=O)/C(=C/c2cn(C)c4nccc(N5CCC(C(=O)N(C)C)CC5)c24)O3)cc1 [Compound 274, 1-{3-[(Z)-{5-[({4-[2-(dimethylamino)ethoxy]phenyl}carbamoyl)amino]-3-oxo-1-benzofuran-2(3H)-ylidene}methyl]-1-methyl-1H-pyrrolo[2,3-b]pyridin-4-yl}-N,N-dimethylpiperidine-4-carboxamide]",IC50,PI3Kα,778 nM
same,IC50,mTOR,21 nM
same,IC50,PI3Kγ,934 nM
"CCn1cc(/C=C2\Oc3cccc(O)c3C2=O)c2c(-c3ccc(C(=O)N4CCN(CCO)CC4)cc3)ccnc21 [Compound 186, (2Z)-2-{[1-ethyl-4-(4-{[4-(2-hydroxyethyl)piperazin-1-yl]carbonyl}phenyl)-1H-pyrrolo[2,3-b]pyridin-3-yl]methylidene}-4-hydroxy-1-benzofuran-3(2H)-one]",IC50,PI3Kα,445 nM
same,IC50,mTOR,4.6 nM
same,IC50,PI3Kγ,550 nM
"CN(C)CCOc1cccc2c1C(=O)/C(=C/c1cn(C)c3nccc(-c4ccccc4)c13)O2 [Compound 159, (2Z)-4-[2-(dimethylamino)ethoxy]-2-[(1-methyl-4-phenyl-1H-pyrrolo[2,3-b]pyridin-3-yl)methylidene]-1-benzofuran-3(2H)-one]",IC50,PI3Kα,1450 nM
same,IC50,mTOR,70.5 nM
same,IC50,PI3Kγ,4150 nM
"Cn1cc(/C=C2\Oc3ccc(NC(=O)Nc4ccc(N5CCOCC5)cc4)cc3C2=O)c2c(N3CC4CCC(C3)O4)ccnc21 [Compound 273, 1-[(2Z)-2-{[1-methyl-4-(8-oxa-3-azabicyclo[3.2.1]oct-3-yl)-1H-pyrrolo[2,3-b]pyridin-3-yl]methylidene}-3-oxo-2,3-dihydro-1-benzofuran-5-yl]-3-(4-morpholin-4-ylphenyl)urea]",IC50,PI3Kα,5700 nM
same,IC50,mTOR,3350 nM
same,IC50,PI3Kγ,> 10000 nM
"CONC(=O)c1ccc(-c2ccnc3c2c(/C=C2\Oc4cccc(O)c4C2=O)cn3C)cc1 [Compound 192, 4-{3-[(Z)-(4-hydroxy-3-oxo-1-benzofuran-2(3H)-ylidene)methyl]-1-methyl-1H-pyrrolo[2,3-b]pyridin-4-yl}-N-methoxybenzamide]",IC50,PI3Kα,26 nM
same,IC50,mTOR,1 nM
same,IC50,PI3Kγ,39 nM
"CNS(=O)(=O)c1ccc(-c2ccnc3c2c(/C=C2\Oc4cc(O)cc(O)c4C2=O)cn3C)cc1 [Compound 77, 4-{3-[(Z)-(4,6-dihydroxy-3-oxo-1-benzofuran-2(3H)-ylidene)methyl]-1-methyl-1H-pyrrolo[2,3-b]pyridin-4-yl}-N-methylbenzenesulfonamide]",IC50,PI3Kα,2 nM
same,IC50,mTOR,0.2 nM
same,IC50,PI3Kγ,22 nM
